± gives the expanded uncertainty stated by the source.
Details: Brillouin light scattering

In the case of `CCOC(C)(C)C` [2-ethoxy-2-methylpropane], the speed of sound (433.15 K, 920 kPa, Liquid) is reported as 454.82 ± 2.7 m/s, the speed of sound (433.15 K, 2500 kPa, Liquid) is reported as 483.99 ± 2.7 m/s and the speed of sound (433.15 K, 4000 kPa, Liquid) is reported as 513.28 ± 2.8 m/s. It also gave a speed of sound (433.15 K, 5500 kPa, Liquid) of 541.29 ± 2.9 m/s, a speed of sound (433.15 K, 7000 kPa, Liquid) of 568 ± 3.2 m/s and a speed of sound (433.15 K, 8500 kPa, Liquid) of 593.43 ± 3.3 m/s. It also gave a speed of sound (433.15 K, 10000 kPa, Liquid) of 617.57 ± 3.4 m/s, a speed of sound (443.15 K, 1150 kPa, Liquid) of 409.25 ± 2.4 m/s and a speed of sound (443.15 K, 2500 kPa, Liquid) of 440.1 ± 2.5 m/s. For the same molecule, the speed of sound (443.15 K, 4000 kPa, Liquid) was 471.64 ± 2.6 m/s, the speed of sound (443.15 K, 5500 kPa, Liquid) was 501.8 ± 2.8 m/s and the speed of sound (443.15 K, 7000 kPa, Liquid) was 530.58 ± 3 m/s. It also gave a speed of sound (443.15 K, 8500 kPa, Liquid) of 557.97 ± 3.1 m/s, a speed of sound (443.15 K, 10000 kPa, Liquid) of 583.97 ± 3.3 m/s and a speed of sound (453.15 K, 1420 kPa, Gas) of 157.35 ± 1.4 m/s. The speed of sound (453.15 K, 1420 kPa, Liquid) was 361.97 ± 2.2 m/s, the speed of sound (453.15 K, 2500 kPa, Liquid) was 395.94 ± 2.3 m/s and the speed of sound (453.15 K, 4000 kPa, Liquid) was 429.85 ± 2.5 m/s. The speed of sound (453.15 K, 5500 kPa, Liquid) was 462.29 ± 2.6 m/s, the speed of sound (453.15 K, 7000 kPa, Liquid) was 493.25 ± 2.9 m/s and the speed of sound (453.15 K, 8500 kPa, Liquid) was 522.72 ± 3 m/s. The speed of sound (453.15 K, 10000 kPa, Liquid) was 550.71 ± 3.1 m/s, the speed of sound (463.15 K, 1750 kPa, Gas) was 149.62 ± 1.5 m/s and the speed of sound (463.15 K, 1750 kPa, Liquid) was 312.51 ± 2.2 m/s. The speed of sound (463.15 K, 2500 kPa, Liquid) was 351.51 ± 2.2 m/s, the speed of sound (463.15 K, 4000 kPa, Liquid) was 387.92 ± 2.3 m/s and the speed of sound (463.15 K, 5500 kPa, Liquid) was 422.75 ± 2.4 m/s. It also gave a speed of sound (463.15 K, 7000 kPa, Liquid) of 456 ± 2.8 m/s, a speed of sound (463.15 K, 10000 kPa, Liquid) of 517.77 ± 3 m/s and a speed of sound (473.15 K, 2130 kPa, Gas) of 140.63 ± 1.4 m/s. For the same molecule, the speed of sound (473.15 K, 2130 kPa, Liquid) was 260.24 ± 2 m/s, the speed of sound (473.15 K, 4000 kPa, Liquid) was 345.84 ± 2.1 m/s and the speed of sound (473.15 K, 5500 kPa, Liquid) was 383.18 ± 2.3 m/s. The speed of sound (473.15 K, 7000 kPa, Liquid) was 418.85 ± 2.7 m/s, the speed of sound (473.15 K, 8500 kPa, Liquid) was 452.84 ± 2.8 m/s and the speed of sound (473.15 K, 10000 kPa, Liquid) was 485.16 ± 2.9 m/s. For the same molecule, the speed of sound (478.15 K, 2340 kPa, Gas) was 135.58 ± 1.4 m/s, the speed of sound (483.15 K, 2570 kPa, Gas) was 130.09 ± 1.5 m/s and the speed of sound (483.15 K, 2570 kPa, Liquid) was 204.36 ± 1.9 m/s. For the same molecule, the speed of sound (483.15 K, 4000 kPa, Liquid) was 303.61 ± 2 m/s, the speed of sound (483.15 K, 5500 kPa, Liquid) was 343.59 ± 2.1 m/s and the speed of sound (488.15 K, 2820 kPa, Gas) was 123.95 ± 2.1 m/s. It also gave a speed of sound (488.15 K, 2820 kPa, Liquid) of 174.7 ± 1.8 m/s, a speed of sound (493.15 K, 3090 kPa, Gas) of 116.68 ± 1.4 m/s and a speed of sound (493.15 K, 3090 kPa, Liquid) of 143.64 ± 1.8 m/s. It also gave a speed of sound (493.15 K, 4000 kPa, Liquid) of 261.23 ± 1.9 m/s, a speed of sound (493.15 K, 5500 kPa, Liquid) of 303.97 ± 2 m/s and a speed of sound (511.02 K, 5000 kPa, Fluid (supercritical or subcritical phases)) of 203.94 ± 2.6 m/s. The speed of sound (511.07 K, 6000 kPa, Fluid (supercritical or subcritical phases)) was 251.63 ± 3.1 m/s, the speed of sound (511.12 K, 7000 kPa, Fluid (supercritical or subcritical phases)) was 292.44 ± 3 m/s and the speed of sound (511.26 K, 4000 kPa, Fluid (supercritical or subcritical phases)) was 109.41 ± 3 m/s. For the same molecule, the speed of sound (520.05 K, 4000 kPa, Fluid (supercritical or subcritical phases)) was 104.01 ± 1.7 m/s, the speed of sound (521 K, 5000 kPa, Fluid (supercritical or subcritical phases)) was 155.15 ± 2.2 m/s and the speed of sound (521.16 K, 6000 kPa, Fluid (supercritical or subcritical phases)) was 217.02 ± 3.6 m/s. It also gave a speed of sound (521.29 K, 7000 kPa, Fluid (supercritical or subcritical phases)) of 264.62 ± 3.3 m/s, a speed of sound (529.5 K, 4000 kPa, Fluid (supercritical or subcritical phases)) of 118.19 ± 1.2 m/s and a speed of sound (530.2 K, 5000 kPa, Fluid (supercritical or subcritical phases)) of 132.08 ± 1.6 m/s. The speed of sound (530.73 K, 6000 kPa, Fluid (supercritical or subcritical phases)) was 183.76 ± 3.4 m/s, the speed of sound (530.99 K, 7000 kPa, Fluid (supercritical or subcritical phases)) was 234.87 ± 3.6 m/s and the speed of sound (540.45 K, 4000 kPa, Fluid (supercritical or subcritical phases)) was 134.27 ± 1.2 m/s. The speed of sound (541.14 K, 5000 kPa, Fluid (supercritical or subcritical phases)) was 128.78 ± 1.2 m/s, the speed of sound (541.48 K, 6000 kPa, Fluid (supercritical or subcritical phases)) was 158.8 ± 2.7 m/s and the speed of sound (541.85 K, 7000 kPa, Fluid (supercritical or subcritical phases)) was 208.25 ± 3.4 m/s. It also gave a speed of sound (550 K, 5000 kPa, Fluid (supercritical or subcritical phases)) of 134.46 ± 1.2 m/s, a speed of sound (550.06 K, 4000 kPa, Fluid (supercritical or subcritical phases)) of 147.6 ± 1.3 m/s and a speed of sound (550.44 K, 6000 kPa, Fluid (supercritical or subcritical phases)) of 144.68 ± 2 m/s. The speed of sound (550.58 K, 7000 kPa, Fluid (supercritical or subcritical phases)) was 188.75 ± 3.2 m/s, the speed of sound (561.04 K, 4000 kPa, Fluid (supercritical or subcritical phases)) was 161.59 ± 1.4 m/s and the speed of sound (561.29 K, 5000 kPa, Fluid (supercritical or subcritical phases)) was 145.73 ± 1.3 m/s. The speed of sound (561.65 K, 6000 kPa, Fluid (supercritical or subcritical phases)) was 145.52 ± 1.5 m/s, the speed of sound (561.96 K, 7000 kPa, Fluid (supercritical or subcritical phases)) was 176.1 ± 2.4 m/s and the speed of sound (571.2 K, 6000 kPa, Fluid (supercritical or subcritical phases)) was 152.92 ± 1.3 m/s. The speed of sound (571.28 K, 7000 kPa, Fluid (supercritical or subcritical phases)) was 169.79 ± 1.7 m/s, the speed of sound (571.33 K, 5000 kPa, Fluid (supercritical or subcritical phases)) was 158.34 ± 1.3 m/s and the speed of sound (571.72 K, 4000 kPa, Fluid (supercritical or subcritical phases)) was 172.96 ± 1.4 m/s. For the same molecule, the speed of sound (579.57 K, 7000 kPa, Fluid (supercritical or subcritical phases)) was 169.78 ± 1.4 m/s, the speed of sound (579.66 K, 6000 kPa, Fluid (supercritical or subcritical phases)) was 163.68 ± 1.3 m/s and the speed of sound (579.91 K, 5000 kPa, Fluid (supercritical or subcritical phases)) was 170.18 ± 1.3 m/s. For the same molecule, the speed of sound (580.22 K, 4000 kPa, Fluid (supercritical or subcritical phases)) was 182.55 ± 1.4 m/s, the speed of sound (590.12 K, 4000 kPa, Fluid (supercritical or subcritical phases)) was 194.12 ± 1.4 m/s and the speed of sound (590.27 K, 7000 kPa, Fluid (supercritical or subcritical phases)) was 175.32 ± 1.3 m/s. For the same molecule, the speed of sound (590.38 K, 5000 kPa, Fluid (supercritical or subcritical phases)) was 185.11 ± 1.4 m/s, the speed of sound (590.39 K, 6000 kPa, Fluid (supercritical or subcritical phases)) was 178.89 ± 1.4 m/s and the speed of sound (601.53 K, 7000 kPa, Fluid (supercritical or subcritical phases)) was 188.12 ± 1.4 m/s. It also gave a speed of sound (601.7 K, 6000 kPa, Fluid (supercritical or subcritical phases)) of 193.21 ± 1.4 m/s, a speed of sound (602.16 K, 5000 kPa, Fluid (supercritical or subcritical phases)) of 199.29 ± 1.4 m/s and a speed of sound (602.86 K, 4000 kPa, Fluid (supercritical or subcritical phases)) of 207.43 ± 1.5 m/s. For the same molecule, the speed of sound (611.06 K, 7000 kPa, Fluid (supercritical or subcritical phases)) was 202.27 ± 1.5 m/s, the speed of sound (611.36 K, 6000 kPa, Fluid (supercritical or subcritical phases)) was 206.2 ± 1.5 m/s and the speed of sound (611.87 K, 5000 kPa, Fluid (supercritical or subcritical phases)) was 211.58 ± 1.5 m/s. For the same molecule, the speed of sound (612.81 K, 4000 kPa, Fluid (supercritical or subcritical phases)) was 217.85 ± 1.5 m/s, the speed of sound (622.53 K, 7000 kPa, Fluid (supercritical or subcritical phases)) was 213.01 ± 1.5 m/s and the speed of sound (622.84 K, 6000 kPa, Fluid (supercritical or subcritical phases)) was 217.4 ± 1.5 m/s. The speed of sound (623.38 K, 5000 kPa, Fluid (supercritical or subcritical phases)) was 222.38 ± 1.5 m/s, the speed of sound (623.94 K, 4000 kPa, Fluid (supercritical or subcritical phases)) was 226.9 ± 1.5 m/s and the speed of sound (631.83 K, 7000 kPa, Fluid (supercritical or subcritical phases)) was 218.09 ± 1.5 m/s. For the same molecule, the speed of sound (632.32 K, 6000 kPa, Fluid (supercritical or subcritical phases)) was 223.19 ± 1.5 m/s, the speed of sound (633.27 K, 5000 kPa, Fluid (supercritical or subcritical phases)) was 228.01 ± 1.5 m/s and the speed of sound (634.19 K, 4000 kPa, Fluid (supercritical or subcritical phases)) was 232.56 ± 1.5 m/s. The speed of sound (643.79 K, 7000 kPa, Fluid (supercritical or subcritical phases)) was 224.46 ± 1.5 m/s, the speed of sound (643.86 K, 6000 kPa, Fluid (supercritical or subcritical phases)) was 228.16 ± 1.5 m/s and the speed of sound (644.48 K, 5000 kPa, Fluid (supercritical or subcritical phases)) was 232.66 ± 1.5 m/s. It also gave a speed of sound (645.27 K, 4000 kPa, Fluid (supercritical or subcritical phases)) of 236.85 ± 1.6 m/s, a speed of sound (653.83 K, 6000 kPa, Fluid (supercritical or subcritical phases)) of 231.78 ± 1.6 m/s and a speed of sound (653.89 K, 7000 kPa, Fluid (supercritical or subcritical phases)) of 228.08 ± 1.5 m/s. It also gave a speed of sound (654.31 K, 5000 kPa, Fluid (supercritical or subcritical phases)) of 235.93 ± 1.6 m/s, a speed of sound (654.75 K, 4000 kPa, Fluid (supercritical or subcritical phases)) of 239.86 ± 1.6 m/s and a speed of sound (665 K, 6000 kPa, Fluid (supercritical or subcritical phases)) of 234.24 ± 1.6 m/s. The speed of sound (665.08 K, 4000 kPa, Fluid (supercritical or subcritical phases)) was 242.03 ± 1.6 m/s, the speed of sound (665.1 K, 5000 kPa, Fluid (supercritical or subcritical phases)) was 237.76 ± 1.6 m/s and the speed of sound (665.1 K, 7000 kPa, Fluid (supercritical or subcritical phases)) was 230.39 ± 1.5 m/s.

Source: the NIST ThermoML archive (doi:10.1016/j.fluid.2015.10.026)
